Assay results taken from publication PMC7217250, “Efficiency of vanillin in impeding metabolic adaptability and virulence of Candida albicans by inhibiting glyoxylate cycle, morphogenesis, and biofilm formation” (Current Medical Mycology, 2020).

Target: T1, Mls1p (malate synthase, MLS) (Candida albicans, UniProt Q5APD2)
T1 construct: gene MLS1; native enzyme in crude extract of C. albicans cells; not purified
Assay: spectrophotometric 5-thio-2-nitrobenzoic acid formation at […] nm, crude extract
Format: cell-based

T1 sequence (Q5APD2 entry or part of it): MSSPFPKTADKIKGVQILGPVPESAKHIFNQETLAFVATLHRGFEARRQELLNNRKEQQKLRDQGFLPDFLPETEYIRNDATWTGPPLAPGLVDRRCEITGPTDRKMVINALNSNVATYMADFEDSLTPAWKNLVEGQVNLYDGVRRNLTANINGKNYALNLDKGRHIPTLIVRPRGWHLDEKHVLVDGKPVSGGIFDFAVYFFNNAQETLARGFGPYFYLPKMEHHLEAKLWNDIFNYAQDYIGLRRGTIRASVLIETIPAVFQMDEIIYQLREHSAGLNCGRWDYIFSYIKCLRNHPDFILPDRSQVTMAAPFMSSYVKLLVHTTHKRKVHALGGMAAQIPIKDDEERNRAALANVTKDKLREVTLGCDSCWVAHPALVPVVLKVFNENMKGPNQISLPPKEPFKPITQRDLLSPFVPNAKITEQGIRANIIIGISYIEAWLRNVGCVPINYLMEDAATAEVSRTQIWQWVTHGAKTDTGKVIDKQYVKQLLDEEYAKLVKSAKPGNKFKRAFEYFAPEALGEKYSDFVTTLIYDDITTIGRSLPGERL

`CC(=O)SCCNC(=O)CCNC(=O)[C@H](O)C(C)(C)COP(=O)(O)OP(=O)(O)OC[C@H]1O[C@@H](n2cnc3c(N)ncnc32)[C@H](O)[C@@H]1OP(=O)(O)O` [acetyl CoA] was tested, and the “spectrophotometric 5-thio-2-nitrobenzoic acid formation at 412 nm, crude extract” value was “acetyl CoA (Sigma Chemical Co., USA) were used as the substrates for the ICL and MLS”.
